# Test results: patent US11305024B2, “Cross-linked polymer modified nanoparticles” (OREGON HEALTH & SCIENCE UNIVERSITY, priority 2015, dated 2022)
# What was measured:
# [1] = test system: BT474; assay: Screening of siRNA in combination with paclitaxel, cell viability; type: cell-based; details: for Cell Viability (% of Scramble Control): 30 nM siRNA; for Enhanced Paclitaxel effect due to gene knockdown: over paclitaxel alone
# Method: (§1) Cells were first treated with 30 nM siRNAs (and commercial DharmaFECT™) followed by 5 nM paclitaxel treatment 24 hours later. Cell viability was determined 3 days later. […] In short, knocking down HER2 had the greatest impact on paclitaxel toxicity in BT474 (having highest HER2 level). […] The effect of paclitaxel combined with siAKT1/BCL2 or siEPS8L1 was also significant. The best enhancement by siAKT1/BCL2 (38-41%) appeared to be with basal cells, HCC1954, BT549, and HCC70. EPS8L1 is involved in EGFR signaling and functions in cell migration.
# [2] = test system: SKBR3; assay: as above; type: cell-based; details: for Cell Viability (% of Scramble Control): 30 nM siRNA; for Enhanced Paclitaxel effect due to gene knockdown: over paclitaxel alone
# Method: as §1
# [3] = test system: HCC70; assay: as above; type: cell-based; details: for Cell Viability (% of Scramble Control): 30 nM siRNA; for Enhanced Paclitaxel effect due to gene knockdown: over paclitaxel alone
# Method: as §1
# [4] = test system: HCC1954; assay: as above; type: cell-based; details: for Cell Viability (% of Scramble Control): 30 nM siRNA; for Enhanced Paclitaxel effect due to gene knockdown: over paclitaxel alone
# Method: as §1
# [5] = test system: BT549; assay: as above; type: cell-based; details: for Cell Viability (% of Scramble Control): 30 nM siRNA; for Enhanced Paclitaxel effect due to gene knockdown: over paclitaxel alone
# Method: as §1
# [6] = test system: HCC1954; details: in vitro and/or in mice; cited from earlier work
# [7] = Serum protection assay (siRNA in 50% human serum); type: in vitro ADME; details: 37° C.
# Method: siRNA-nanoparticles were incubated with 50 v/v % human serum in PBS for a specified period of time (0, 0.5, 1, 2, 4, 8, 24, and 48 hours) at 37° C. under continuous shaking. At the end of each time point, the sample was mixed with proteinase K (200 μg/mL) and frozen at −80° C. to stop the enzymatic reaction. For the analysis, samples were thawed and mixed with 1.0 wt. % SDS in order to release siRNA from the nanoparticles. The sample was then mixed with an equal amount of 2× loading buffer and loaded into a 15% TBE-urea gel (BioRad). The gel ran at 100 V for the first 20 minutes and 150 V for another hour. The gel was then stained with SyBR Gold (Life Technologies) following the manufacturer's protocol and viewed in a UV chamber. The band intensity was analyzed by ImageJ software (National Institutes of Health, Bethesda, Md.). The fraction of intact siRNA was reported as a function of time that the siRNA-nanoparticles were in 50% serum.
# [8] = test system: HER2+ cell lines; assay: Growth inhibition by siHER2 in a panel of HER2+ cell lines; type: cell-based; details: 19 out of 20 HER2+ cell lines; read-out: dose of the siHER2 required to inhibit cell growth by 50% (G150)
# [9] = test system: luciferase; assay: Luciferase silencing by siLUC-loaded nanoconstructs in LM2-4luc+/H2N cells; type: cell-based; details: 13-130 nM GALA, 15 nM siRNA, NP/siRNA 50, non-cross-linked PEI, 2 days
# Method: The LM2-4luc+/H2N cell line (over-expressing luciferase and HER2; J. M. du Manoir et al., 2006) was used for initial assessment of the nanoparticles for gene silencing efficacy when delivering siRNA against luciferase (siLUC). Cells were plated at 3000 cells/well in a 96-well plate. One day after seeding, cells were treated with siLUC-nanoparticles. The nanoparticles were loaded with siLUC at NP/siRNA ratio of 25 or 50 by mass. […] The commercially available transfection agent, DharmaFECT™ (Dharmacon, Lafayette, Colo.), with the same siLUC dose served as a positive control. Non-targeting or scrambled siRNA (siSCR) was used throughout as a negative control. After overnight incubation (−20 hours), cells were washed once to remove the nanoconstructs and replenished with a complete media. At 48 hours post-treatment, cells were lysed and analyzed for luciferase activity by the Luciferase Glow Assay Kit (Thermo Fisher Scientific, Waltham, Mass.) and protein concentration by the BCA protein assay kit (Thermo Fisher Scientific), following manufacturer's protocols. Luciferase activity of the lysate was normalized with the corresponding protein concentration in the same well and reported as a percentage of the untreated or siSCR controls. All treatments were performed with replicates.
# [10] = metastatic solid tumor patients; cited from earlier work
# [11] = test system: basal cells, HCC1954, BT549, and HCC70; assay: Screening of siRNA in combination with paclitaxel, basal cells as a group; type: cell-based
# Method: as §1
# [12] = test system: Platelet-rich plasma; assay: Platelet aggregation assay; set-up: species or system human; details: monitored for three minutes; 1× and 5×
# Method: Platelet-rich plasma (PRP) was obtained following centrifugation of isolated blood (diluted in 3.2% sodium citrate, 1:10). The isolated blood was centrifuged at 200 g for 20 minutes. The supernatant (which contains PRP) was collected and maintained at room temperature prior to treatment. Following a 1-min incubation at 37° C. (baseline), reactions were initiated by addition of nanoparticle (70 or 350 μg/mL) or collagen related peptide (CRP; 100 μg/ml) and monitored for three minutes for optical density via an aggregometer (Chrono-log Corp).
# [13] = test system: Red blood cells; assay: Hemolysis; type: cell-based, human; details: 4 hours, 37° C.; nanoparticle 70 or 350 μg/mL (1× or 5×)
# Method: Nanoparticles were tested at 1× and 5× of the intended human blood level. Studies of blood compatibility were performed following or with minor modification from the Nanotechnology Characterization Laboratory's (Frederick, Md.) published protocols.
# Human blood was collected in the presence of EDTA, and serum was removed. Red blood cells were suspended at 1×10^9 cells per mL and exposed to nanoparticle (final concentrations of 70 or 350 μg/mL for 1× or 5×, respectively) for 4 hours and 37° C. Following centrifugation, absorbance of hemoglobin in the supernatants (at 542 nm) was measured and used to quantify percent hemolysis.
# [14] = BT474, then 5 nM paclitaxel 24 hours later (paclitaxel +)
# [15] = SKBR3, then 5 nM paclitaxel 24 hours later (paclitaxel +)
# [16] = HCC70, then 5 nM paclitaxel 24 hours later (paclitaxel +)
# [17] = HCC1954, then 5 nM paclitaxel 24 hours later (paclitaxel +)
# [18] = BT549, then 5 nM paclitaxel 24 hours later (paclitaxel +)
# [19] = BT474 (HER2 positive, luminal), DharmaFECT, paclitaxel −
# [20] = SKBR3 (HER2 positive, luminal), DharmaFECT, paclitaxel −
# [21] = HCC70 (triple negative, basal), DharmaFECT, paclitaxel −
# [22] = HCC1954 (HER2 positive, basal), DharmaFECT, paclitaxel −
# [23] = BT549 (triple negative, basal), DharmaFECT, paclitaxel −
molecule,measurement,setting,value
"siSCR: non-targeting or scrambled siRNA control, SEQ ID NO. 5 and 6 (chain 1 UGGUUUACAUGUCGACUAA; chain 2 UUAGUCGACAUGUAAACCA; listed as RNA, chemistry not given here) [reference compound]",Cell Viability (% of Scramble Control),[1]; [14],58%
same,Cell Viability (% of Scramble Control),[2]; [15],39%
same,Cell Viability (% of Scramble Control),[3]; [16],70%
same,Cell Viability (% of Scramble Control),[4]; [17],55%
same,Cell Viability (% of Scramble Control),[5]; [18],59%
pertuzumab,resistance of HCC1954,[6],resistant
"siHER2: siRNA against HER2, SEQ ID NO. 1 and 2 (chain 1 CACGUUUGAGUCCAUGCCCAAUU; chain 2 UUGGGCAUGGACUCAAACGUGUU; listed as RNA, chemistry not given here)",half-life,[7],about 1 hour
same,time within which siHER2 was degraded,[7]; without nanoparticles,≤ 0.5 h
same,IC50,[8],< 5 nM
same,Cell Viability (% of Scramble Control),[1]; [19],35%
same,Cell Viability (% of Scramble Control),[1]; [14],26%
same,Enhanced Paclitaxel effect due to gene knockdown,[1]; BT474,32%
same,Cell Viability (% of Scramble Control),[2]; [20],51%
same,Cell Viability (% of Scramble Control),[2]; [15],33%
same,Enhanced Paclitaxel effect due to gene knockdown,[2]; SKBR3,6%
same,Cell Viability (% of Scramble Control),[3]; [21],76%
same,Cell Viability (% of Scramble Control),[3]; [16],49%
same,Enhanced Paclitaxel effect due to gene knockdown,[3]; HCC70,21%
same,Cell Viability (% of Scramble Control),[4]; [22],68%
same,Cell Viability (% of Scramble Control),[4]; [17],49%
same,Enhanced Paclitaxel effect due to gene knockdown,[4]; HCC1954,6%
same,Cell Viability (% of Scramble Control),[5]; [23],51%
same,Cell Viability (% of Scramble Control),[5]; [18],40%
same,Enhanced Paclitaxel effect due to gene knockdown,[5]; BT549,19%
GALA,effect of co-loaded peptide on silencing efficacy,[9],clearly enhanced silencing efficacy of the nanoconstructs
[SH-].[SH-].[S]=[Mo]=[S] [tetrathiomolybdate],treated patients with mild copper deficiency who achieved stable disease,[10],five out of six
N.N.[Cl][Pt][Cl] [cisplatin],resistance of HCC1954,[6],resistant
"siAKT1/BCL2: dual-targeting siRNA duplex, one strand targets AKT1, the other BCL2, SEQ ID NO. 7 and 8 (chain 1 AUUCAGUUUCACAUUGCUUGGUGAC; chain 2 GUCACCAAGAACUGUGACACAGAAGGG; listed as RNA, chemistry not given here)",best enhancement of paclitaxel effect,[11],38-41%
same,Cell Viability (% of Scramble Control),[1]; [19],74%
same,Cell Viability (% of Scramble Control),[1]; [14],39%
same,Enhanced Paclitaxel effect due to gene knockdown,[1]; BT474,19%
same,Cell Viability (% of Scramble Control),[2]; [20],77%
same,Cell Viability (% of Scramble Control),[2]; [15],29%
same,Enhanced Paclitaxel effect due to gene knockdown,[2]; SKBR3,10%
same,Cell Viability (% of Scramble Control),[3]; [21],42%
same,Cell Viability (% of Scramble Control),[3]; [16],29%
same,Enhanced Paclitaxel effect due to gene knockdown,[3]; HCC70,41%
same,Cell Viability (% of Scramble Control),[4]; [22],47%
same,Cell Viability (% of Scramble Control),[4]; [17],17%
same,Enhanced Paclitaxel effect due to gene knockdown,[4]; HCC1954,38%
same,Cell Viability (% of Scramble Control),[5]; [23],54%
same,Cell Viability (% of Scramble Control),[5]; [18],23%
same,Enhanced Paclitaxel effect due to gene knockdown,[5]; BT549,36%
collagen related peptide,platelet aggregation,[12],triggered aggregation immediately
Triton-X,hemolysis of red blood cells,[13],complete blood lysis
